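How tested: cells in 96-well plates exposed to compound for 48 hours at five concentrations. At the GI50, growth is halved.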 Active and inactive are the calls of the source. Rule as the data show it: active = GI50 up to about 1.1 µM and inactive = higher.
Experiments:
Test in all cases: NCI tumour cell line growth inhibition, 48 h
SK-MEL-28 = system: SK-MEL-28
NCI/ADR-RES = system: NCI/ADR-RES
PC-3 = system: PC-3
RPMI-8226 = system: RPMI-8226
DU-145 = system: DU-145
BT-549 = system: BT-549
OVCAR-4 = system: OVCAR-4
NCI-H460 = system: NCI-H460
NCI-H23 = system: NCI-H23
HOP-62 = system: HOP-62
SNB-19 = system: SNB-19
UACC-62 = system: UACC-62
TK-10 = system: TK-10
HT-29 = system: HT-29
NCI-H522 = system: NCI-H522
SR = system: SR
HCT-116 = system: HCT-116
U-251 = system: U-251
SF-539 = system: SF-539

Row | Compound | GI50 (SK-MEL-28) | GI50 (NCI/ADR-RES) | GI50 (PC-3) | GI50 (RPMI-8226) | GI50 (DU-145) | GI50 (BT-549) | GI50 (OVCAR-4) | GI50 (NCI-H460) | GI50 (NCI-H23) | GI50 (HOP-62) | GI50 (SNB-19) | GI50 (UACC-62) | GI50 (TK-10) | GI50 (HT-29) | GI50 (NCI-H522) | GI50 (SR) | GI50 (HCT-116) | GI50 (U-251) | GI50 (SF-539)
1 | COC(=O)C1(Cc2ccc3c(c2)CCC3)Cc2ccc3c(c2C1=O)CCC3 (stereo unspecified) | 8.22 µM (inactive) | 3.07 µM (inactive) | 9.02 µM (inactive) | 5.4 µM (inactive) | 33.6 µM (inactive) | 5.68 µM (inactive) | 7.73 µM (inactive) | 12.7 µM (inactive) | 6.62 µM (inactive) | 7.23 µM (inactive) | 8.91 µM (inactive) | 3.84 µM (inactive) | 11.8 µM (inactive) | 3.29 µM (inactive) | 3.92 µM (inactive) | 2.55 µM (inactive) | 3.66 µM (inactive) | 4.65 µM (inactive) | 5.68 µM (inactive)
2 | Clc1ccc(/C(=C/c2ccccc2)Cn2ccnc2)cc1 | 30.1 µM (inactive) | 20.4 µM (inactive) | 13.6 µM (inactive) | 18.2 µM (inactive) | 33 µM (inactive) | 22.4 µM (inactive) | 22.6 µM (inactive) | 26.9 µM (inactive) | 38.2 µM (inactive) | 89.1 µM (inactive) | 12 µM (inactive) | 28 µM (inactive) | 56.1 µM (inactive) | 29.6 µM (inactive) | 11.9 µM (inactive) | 19.8 µM (inactive) | 9.08 µM (inactive) | 21.8 µM (inactive) | 24 µM (inactive)
3 | Cc1ccc(S(=O)(=O)N/N=C2/CCCOC2)cc1 | > 100 µM (inactive) | > 100 µM (inactive) | > 100 µM (inactive) | > 100 µM (inactive) | > 100 µM (inactive) | > 100 µM (inactive) | > 100 µM (inactive) | > 100 µM (inactive) | > 100 µM (inactive) | > 100 µM (inactive) | > 100 µM (inactive) | > 100 µM (inactive) | > 100 µM (inactive) | > 100 µM (inactive) | > 100 µM (inactive) | > 100 µM (inactive) | > 100 µM (inactive) | > 100 µM (inactive) | > 100 µM (inactive)
4 | CC(=O)CCCCC(=O)Nc1ccc(CC(NC(=O)OC(C)(C)C)C(=O)NCC(=O)OCc2ccccc2)cc1 (stereo unspecified) | 19.3 µM (inactive) | > 100 µM (inactive) | 14.4 µM (inactive) | 18 µM (inactive) | 32.7 µM (inactive) | 14.1 µM (inactive) | 13.7 µM (inactive) | 20.7 µM (inactive) | 30.8 µM (inactive) | 13.8 µM (inactive) | 21.9 µM (inactive) | > 10 µM (inactive) | 63.1 µM (inactive) | 19.6 µM (inactive) | 23.6 µM (inactive) | 22.2 µM (inactive) | 19.6 µM (inactive) | 18.7 µM (inactive) | 18.8 µM (inactive)
5 | O=C1COc2cc(N3CCN(c4cccc(C(F)(F)F)c4)CC3)ccc2N1 | > 100 µM (inactive) | > 100 µM (inactive) | > 100 µM (inactive) | > 100 µM (inactive) | > 100 µM (inactive) | > 100 µM (inactive) | > 100 µM (inactive) | > 100 µM (inactive) | > 100 µM (inactive) | > 100 µM (inactive) | > 100 µM (inactive) | > 100 µM (inactive) | > 100 µM (inactive) | > 100 µM (inactive) | 86.3 µM (inactive) | > 100 µM (inactive) | > 100 µM (inactive) | > 100 µM (inactive) | > 100 µM (inactive)
6 | CN(C)CC1CCC/C(=C\c2ccc(Cl)cc2)C1=O (stereo unspecified) | 3.46 µM (inactive) | 3.62 µM (inactive) | 2.67 µM (inactive) | 0.254 µM (active) | 15.5 µM (inactive) | 1.73 µM (inactive) | 2.79 µM (inactive) | 17.3 µM (inactive) | 8.02 µM (inactive) | 15.8 µM (inactive) | 11.8 µM (inactive) | 2.08 µM (inactive) | 3.9 µM (inactive) | 9.27 µM (inactive) | 1.75 µM (inactive) | 1.33 µM (inactive) | 1.8 µM (inactive) | 3.71 µM (inactive) | 10.6 µM (inactive)
7 | COC(=O)C(Cc1ccc2c(c1)CCCC2)Cc1cc2c(cc1C(O)OC)CCC2 (stereo unspecified) | 55 µM (inactive) | 32.8 µM (inactive) | 19.5 µM (inactive) | 27.9 µM (inactive) | > 100 µM (inactive) | > 100 µM (inactive) | 80 µM (inactive) | 35.8 µM (inactive) | 73.5 µM (inactive) | > 100 µM (inactive) | > 100 µM (inactive) | > 100 µM (inactive) | 62.2 µM (inactive) | 27.7 µM (inactive) | 50.1 µM (inactive) | 38.5 µM (inactive) | 39.6 µM (inactive) | 49.4 µM (inactive) | 39.1 µM (inactive)
8 | C[C@@H]1CCC2[C@@H](C)C(=O)O[C@@H]3C4C[C@@H]1[C@@]23OO[C@@]4(C)O (stereo partly specified) | > 100 µM (inactive) | > 100 µM (inactive) | > 100 µM (inactive) | > 100 µM (inactive) | 71.4 µM (inactive) | > 100 µM (inactive) | > 100 µM (inactive) | 52 µM (inactive) | 88.5 µM (inactive) | 48.3 µM (inactive) | > 100 µM (inactive) | > 100 µM (inactive) | > 100 µM (inactive) | > 100 µM (inactive) | 40.8 µM (inactive) | > 100 µM (inactive) | 88.3 µM (inactive) | 48.8 µM (inactive) | 55.6 µM (inactive)
9 | COc1ccc(NC2C(=O)C3(C)CCC2C3(C)C)cc1 (stereo unspecified) | > 100 µM (inactive) | > 100 µM (inactive) | 97.7 µM (inactive) | 52.2 µM (inactive) | > 100 µM (inactive) | 69 µM (inactive) | 72.9 µM (inactive) | > 100 µM (inactive) | > 100 µM (inactive) | > 100 µM (inactive) | > 100 µM (inactive) | > 100 µM (inactive) | > 100 µM (inactive) | 40.4 µM (inactive) | 79.4 µM (inactive) | 74.8 µM (inactive) | > 100 µM (inactive) | > 100 µM (inactive) | > 100 µM (inactive)
10 | COc1ccc(C[C@H]2NC[C@H](OC(C)=O)[C@H]2OC(C)=O)cc1 | 0.143 µM (active) | 0.171 µM (active) | 0.21 µM (active) | 0.275 µM (active) | 0.0726 µM (active) | 0.171 µM (active) | 0.104 µM (active) | 0.172 µM (active) | 0.179 µM (active) | 0.195 µM (active) | 0.0935 µM (active) | 0.288 µM (active) | 0.31 µM (active) | 0.183 µM (active) | 0.0525 µM (active) | 0.177 µM (active) | 0.105 µM (active) | 0.304 µM (active) | 0.441 µM (active)
11 | O=S(=O)(O)c1ccc2c(/N=N\c3cccc4ccccc34)c(O)c(S(=O)(=O)O)cc2c1 | > 100 µM (inactive) | > 100 µM (inactive) | > 100 µM (inactive) | > 100 µM (inactive) | > 100 µM (inactive) | > 100 µM (inactive) | > 100 µM (inactive) | > 100 µM (inactive) | > 100 µM (inactive) | > 100 µM (inactive) | > 100 µM (inactive) | > 100 µM (inactive) | > 100 µM (inactive) | > 100 µM (inactive) | > 100 µM (inactive) | > 48.6 µM (inactive) | > 100 µM (inactive) | > 100 µM (inactive) | > 100 µM (inactive)
12 | O=S(=O)(O)c1cc(O)c2c(/N=C\c3ccccc3O)cc(S(=O)(=O)O)cc2c1 | > 100 µM (inactive) | > 100 µM (inactive) | > 100 µM (inactive) | > 100 µM (inactive) | > 100 µM (inactive) | > 100 µM (inactive) | > 100 µM (inactive) | > 100 µM (inactive) | > 100 µM (inactive) | > 100 µM (inactive) | > 100 µM (inactive) | > 100 µM (inactive) | > 100 µM (inactive) | > 100 µM (inactive) | > 100 µM (inactive) | > 100 µM (inactive) | > 100 µM (inactive) | > 100 µM (inactive) | > 100 µM (inactive)
13 | CC(=O)OC1C[C@@H](C)C2(CC(c3ccoc3)OC2=O)C2CCC(O)C3(CO3)C12CO (stereo partly specified) | > 100 µM (inactive) | > 100 µM (inactive) | > 100 µM (inactive) | > 100 µM (inactive) | > 100 µM (inactive) | > 100 µM (inactive) | > 100 µM (inactive) | > 100 µM (inactive) | > 100 µM (inactive) | > 100 µM (inactive) | > 100 µM (inactive) | > 100 µM (inactive) | > 100 µM (inactive) | > 100 µM (inactive) | > 100 µM (inactive) | > 100 µM (inactive) | > 100 µM (inactive) | > 100 µM (inactive) | > 100 µM (inactive)
14 | O=C1OC(=O)C(=C\c2ccc3c(c2)OCO3)/C1=C/c1ccc2c(c1)OCO2 | > 100 µM (inactive) | > 100 µM (inactive) | > 100 µM (inactive) | > 55.6 µM (inactive) | > 100 µM (inactive) | > 100 µM (inactive) | > 100 µM (inactive) | > 100 µM (inactive) | > 80.9 µM (inactive) | > 100 µM (inactive) | > 100 µM (inactive) | > 72.1 µM (inactive) | > 100 µM (inactive) | > 100 µM (inactive) | 36.1 µM (inactive) | > 52.8 µM (inactive) | > 100 µM (inactive) | > 80.7 µM (inactive) | > 100 µM (inactive)
